In PubChem BioAssay AID1963963 (Molecular Pharmacology Branch, DTP, NCI, 2024):
Where “and” joins values, the source holds several entries; their conditions need not be identical. Equal values may be shown once.

Test system: 958667-338-R-J2-PDC tumor spheroids viability
Assay: Anticancer human tumor 958667-338-R-J2-PDC patient-derived colon adenocarcinoma cell line growth inhibition [PI3K]
Settings: spheroids with HUVEC and MSC; for viability, T/C: stronger effect = lower value
From the text: Combinatorial screen of targeted agents with the PI3K inhibitors inavolisib, alpelisib, duvelisib, and copanlisib in multi-cell type tumor spheroids
A high-throughput screen of multi-cell type tumor spheroids was designed to identify active combinations of targeted small molecules and PI3K pathway inhibitors. Complex spheroids include a stromal component modeled by human endothelial cells (HUVEC) and fibroblasts modeled by human mesenchymal stem cells (MSCs). The concentration ranges selected for each drug and investigational agent were based upon clinically achievable concentrations if the clinical Cmax of the agent was known.
Compounds. The drugs and investigational agents: inavolisib (NSC800729), alpelisib (NSC765974), duvelisib (NSC772469), copanlisib (NSC816437), ipatasertib (NSC767898), afuresertib (NSC778305), talazoparib (NSC767125), sapanisertib (NSC764658), selumetinib (NSC741078), tovorafenib (DAY101, NSC766906), vemurafenib (NSC761431), ravoxertinib (NSC781343), sotorasib (NSC818433), MRTX1133 (NSC 836407), abemaciclib (NSC 768073), palbociclib (NSC758247), venetoclax (NSC 766270), SY5609 (NSC837396), enzalutamide (NSC755605), and darolutamide (NSC825331), were obtained from the National Cancer Institute (NCI) Developmental Therapeutics Program Chemical Repository. The FDA-approved anticancer drug set is available from the NCI Developmental Therapeutics Program. […] The stock solutions were prepared in dimethyl sulfoxide (DMSO, Sigma-Aldrich, St. Louis, MO, cat. D2650) at 800-fold the tested concentration and stored at -70 degrees C prior to their use. All drugs and investigational agents were tested over a range starting from a high concentration at or near the clinical Cmax and decreasing in half-log increments. If the clinical Cmax for an agent had not been determined, the highest concentration tested was 10 microM.
Cell Culture. All cells were maintained in an incubator at 37 degrees C and 5% CO2 with 95% humidity. The PDC lines were cultured according to standard operating procedures established by the NCI PDMR (https://pdmr.cancer.gov/sops/default.htm). All PDCs were thawed and cultured in Matrigel-coated flasks prepared with a working solution of 1X Ham's F-12 nutrient mix, without supplementation (Invitrogen, Waltham, MA, cat. 11765054), 100 U/mL penicillin-streptomycin (Invitrogen, cat. 15140122), and 2.5% Matrigel (Corning Inc., Corning, NY, cat. 354248) for the first three passages. The 354836-022-R-J1-PDC, 475296-252-R-J1-PDC, and 997726-040-R-J2-PDC lines were cultured in 6A media, which includes advanced DMEM/F-12 (Thermo Fisher Scientific, cat. 12634028), 10 mM HEPES (Thermo Fisher Scientific, cat. 15630080), 1X GlutaMAX supplement (Thermo Fisher Scientific, cat. 35050061), 0.1 mg/mL primocin (InvivoGen, San Diego, CA, cat. ant-pm-2), 10% defined fetal bovine serum, heat inactivated (HyClone Laboratories Inc., Logan, UT, cat. SH30070.03HI), 50% L-WRN conditioned media (ATCC, cat. CRL-3276), 1.25 mM N-Acetyl-L-cysteine (Sigma-Aldrich, cat. A9165), 10 mM nicotinamide (Sigma-Aldrich, cat. N0636), 1X B-27 supplement (Thermo Fisher Scientific, cat. 17504044), 1X N-2 supplement (Thermo Fisher Scientific, cat. 17502048), and 10 microM Y-27632 dihydrochloride (Tocris Bioscience, Bristol, United Kingdom, cat. 1254). The 624824-186-R-J2-PDC line was cultured in 6C/Colon 1B media, which includes all 6A media components plus 50 ng/mL human EGF recombinant protein (Thermo Fisher Scientific, cat. PHG0311). […]

[1] = compound alone, run of 06/12/2023
[2] = compound alone, run of 06/13/2023
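Also: spheroids exposed to compounds for seven days before readout.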

Row | Compound | IC50 (curve of compound) | viability, T/C (compound 0.0316 µM) | viability, T/C (compound 0.1 µM) | viability, T/C (compound 0.316 µM) | viability, T/C (compound 1 µM) | viability, T/C (compound 3.16 µM) | viability, T/C (compound 10 µM) | also measured
1 | C#Cc1c(F)ccc2cc(O)cc(-c3ncc4c(N5CC6CCC(C5)N6)nc(OCC56CCCN5CC(F)C6)nc4c3F)c12 (centres undefined) | > 10 µM | 98.5% [middle of 4 runs] | 103% [middle of 4 runs] | 101% [middle of 4 runs] | 97.3% [middle of 4 runs] | 86.7% [middle of 4 runs] | 63.8% [middle of 4 runs] | 
2 | CC(C)n1nc(-c2ccc3oc(N)nc3c2)c2c(N)ncnc21 | 80.6 nM [middle of 4 runs] | 72.6% [middle of 4 runs] | 44.5% [middle of 4 runs] |  |  |  |  | viability, T/C (compound 0.000316 µM): 93.8% [middle of 4 runs]; viability, T/C (compound 0.001 µM): 97.1% [middle of 4 runs]; viability, T/C (compound 0.01 µM): 94.7% [middle of 4 runs]
3 | CC(Cn1ccc(-c2ccc(C#N)c(Cl)c2)n1)NC(=O)c1cc(C(C)O)[nH]n1 (centres undefined) | > 10 µM | 105% [middle of 4 runs] | 92.6% [middle of 4 runs] | 111% [middle of 4 runs] | 104% [middle of 4 runs] | 107% [middle of 4 runs] | 89.4% [middle of 4 runs] | 
4 | CC(Nc1ccc2c(c1)OCCn1cc(N3C(=O)OCC3C(F)F)nc1-2)C(N)=O (centres undefined) |  | 96.9% [middle of 7 runs] | 80.8% [middle of 7 runs] | 70.7% [middle of 7 runs] | 64.9% [middle of 7 runs] |  |  | viability, T/C (compound 0.01 µM): 100% [middle of 7 runs]; IC50 [1]: > 1 µM
5 | CC(Nc1ncnc2nc[nH]c12)c1cc2cccc(Cl)c2c(=O)n1-c1ccccc1 (centres undefined) |  |  | 93.8% [middle of 8 runs] |  | 90.8% [middle of 8 runs] |  | 92.9% [middle of 8 runs] | IC50 [2]: > 10 µM
6 | CC1(C)CCC(CN2CCN(c3ccc(C(=O)NS(=O)(=O)c4ccc(NCC5CCOCC5)c([N+](=O)[O-])c4)c(Oc4cnc5[nH]ccc5c4)c3)CC2)=C(c2ccc(Cl)cc2)C1 | > 10 µM and 6.88 µM and 6.97 µM |  |  | 106% [middle of 4 runs] | 109% (2×) and 87% and 112% | 98.7% [middle of 4 runs] |  | 
7 | CCCS(=O)(=O)Nc1ccc(F)c(C(=O)c2c[nH]c3ncc(-c4ccc(Cl)cc4)cc23)c1F | 6.27 µM [middle of 4 runs] |  | 94.2% and 87.7% and 113% (2×) | 107% [middle of 4 runs] | 114% [middle of 4 runs] | 116% [middle of 4 runs] | 10.9% [middle of 4 runs] | 
8 | CCN1CCN(Cc2ccc(Nc3ncc(F)c(-c4cc(F)c5nc(C)n(C(C)C)c5c4)n3)nc2)CC1 | > 1 µM | 91% and 87.5% and 98.1% | 72.1% and 75.9% and 98.9% | 78.8% and 76.1% and 79.7% | 74.5% and 70.1% and 72.5% |  |  | viability, T/C (compound 0.00316 µM): 108% and 102% and 109%; viability, T/C (compound 0.01 µM): 86.7% and 90.8% and 95.2%
9 | CNC(=O)c1ccc(N2C(=S)N(c3ccc(C#N)c(C(F)(F)F)c3)C(=O)C2(C)C)cc1F | > 10 µM | 110% [middle of 4 runs] | 97% [middle of 4 runs] |  | 112% and 103% (2×) and 100% | 95.8% and 104% and 124% (2×) | 103% (2×) and 115% and 88.7% | 
10 | COc1c(OCCCN2CCOCC2)ccc2c3n(c(=NC(=O)c4cnc(N)nc4)nc12)CCN3 |  | 71.9% [middle of 8 runs] | 54% [middle of 8 runs] | 38.8% [middle of 8 runs] | 18.2% [middle of 8 runs] |  |  | viability, T/C (compound 0.00316 µM): 92.6% [middle of 8 runs]; IC50 [2]: 147 nM [middle of 8 runs]
11 | Cc1nc(NC(=O)N2CCCC2C(N)=O)sc1-c1ccnc(C(C)(C)C(F)(F)F)c1 (centres undefined) |  |  |  |  |  | 71.5% [middle of 8 runs] | 66% [middle of 8 runs] | IC50 [1]: > 10 µM
12 | Cn1cnc2c(F)c(Nc3ccc(Br)cc3Cl)c(C(=O)NOCCO)cc21 | 377 nM [middle of 4 runs] |  |  |  |  |  |  | viability, T/C (compound 0.00949 µM): 96.5% [middle of 4 runs]; viability, T/C (compound 0.0949 µM): 85.5% [middle of 4 runs]; viability, T/C (compound 0.3 µM): 54.2% [middle of 4 runs]; viability, T/C (compound 0.949 µM): 35.9% [middle of 4 runs]; viability, T/C (compound 3 µM): 20.5% [middle of 4 runs]
13 | Cn1ncc(Cl)c1-c1cc(C(=O)NC(CN)Cc2cccc(F)c2)sc1Cl (centres undefined) |  | 94.3% [middle of 4 runs] | 92.4% [middle of 4 runs] | 91.9% [middle of 4 runs] | 74.7% [middle of 4 runs] | 53.8% [middle of 4 runs] | 39.3% [middle of 4 runs] | 
14 | Cn1nccc1Nc1nccc(-c2ccn(C(CO)c3ccc(Cl)c(F)c3)c(=O)c2)n1 (centres undefined) | > 10 µM | 102% [middle of 4 runs] |  | 95.4% [middle of 4 runs] | 86.6% [middle of 4 runs] | 89.5% [middle of 4 runs] |  | 
15 | Cn1ncnc1[C@H]1c2n[nH]c(=O)c3cc(F)cc(c23)N[C@@H]1c1ccc(F)cc1 | > 0.1 µM | 103% [middle of 4 runs] | 99.1% [middle of 4 runs] |  |  |  |  | viability, T/C (compound 0.000316 µM): 115% [middle of 4 runs]; viability, T/C (compound 0.001 µM): 110% [middle of 4 runs]; viability, T/C (compound 0.00316 µM): 97.5% [middle of 4 runs]

Further lines, with some results ahead:

Row | IC50 (curve of compound) | Compound | viability, T/C (compound 0.0316 µM) | viability, T/C (compound 0.1 µM) | viability, T/C (compound 0.316 µM) | viability, T/C (compound 1 µM) | viability, T/C (compound 3.16 µM) | viability, T/C (compound 10 µM) | also measured
16 | > 10 µM | C=CC(=O)N1CCN(c2nc(=O)n(-c3c(C)ccnc3C(C)C)c3nc(-c4c(O)cccc4F)c(F)cc23)C(C)C1 (centres undefined) |  | 108% [middle of 4 runs] | 103% [middle of 4 runs] | 114% [middle of 4 runs] | 113% [middle of 4 runs] |  | 
17 | > 0.1 µM | CC(=O)c1c(C)c2cnc(Nc3ccc(N4CCNCC4)cn3)nc2n(C2CCCC2)c1=O | 99.5% and 114% (2×) and 106% | 93.8% [middle of 4 runs] |  |  |  |  | viability, T/C (compound 0.000316 µM): 110% [middle of 4 runs]; viability, T/C (compound 0.00316 µM): 107% [middle of 4 runs]; viability, T/C (compound 0.01 µM): 109% (2×) and 88% and 111%
18 | > 10 µM | CC(C)NCC(C(=O)N1CCN(c2ncnc3c2C(C)CC3O)CC1)c1ccc(Cl)cc1 (centres undefined) | 99.2% and 102% and 101% | 92.6% and 114% and 87.9% | 101% and 113% and 108% | 78.6% and 73.4% and 101% | 78.8% and 72.3% and 119% | 72.2% and 69.7% and 80.9% | 
19 | 5.09 µM [middle of 4 runs] | CC1(C)CCC(Nc2ncc(C(F)(F)F)c(-c3c[nH]c4c(P(C)(C)=O)c(C#N)ccc34)n2)CN1 (centres undefined) | 97.9% [middle of 4 runs] |  |  | 66.5% [middle of 4 runs] | 64.5% [middle of 4 runs] | 36.4% [middle of 4 runs] | 
20 | > 10 µM | C[C@@H](NC(=O)c1ncnc(N)c1Cl)c1ncc(C(=O)Nc2cc(C(F)(F)F)c(Cl)cn2)s1 | 104% [middle of 4 runs] | 103% [middle of 4 runs] | 106% [middle of 4 runs] |  | 95.3% [middle of 4 runs] | 98.6% [middle of 4 runs] | 
